Reference: PMC7395068, “The evolution of strategies to minimise the risk of human drug-induced liver injury (DILI) in drug discovery and development” (Archives of Toxicology, 2020)
Read-outs that look alike come from different tables or passages of the source.

Tests used:
rBsep [1] = test system: rBsep; design: method as in Dawson 2012; settings: In vitro Assay; ref Dawson 2012; cited from earlier work
[2] = cited from earlier work
[3] = test system: THLE-Null and THLE-3A4 cells; settings: In vitro Assay; ref Gustafsson 2014; cited from earlier work
[4] = test system: HepG2 cells, primary human hepatocytes; settings: In vitro Assay; ref Garside 2014; cited from earlier work
human hepatocytes = settings: cited from earlier work; for Structural based (HCI): In vitro Assay, ref Xu 2008
[5] = test system: THLE or HepG2 cells, isolated mitochondria, BSEP; settings: cited from earlier work
HepG2 cells [6] = settings: cited from earlier work; for Structural based (HCI): In vitro Assay, ref O'Brien 2006
HepG2 = test system: HepG2; design: method as in Albrecht 2019; settings: In vitro Assay; ref Albrecht 2019; cited from earlier work
[7] = cited from earlier work; remark: listed apart in the source
HepG2 cells [8] = settings: cited from earlier work
PHH [9] = settings: cited from earlier work
hLiMTs [10] = settings: cited from earlier work
PHH spheroids = settings: cited from earlier work
[11] = test system: HepG2 C3A spheroid, BSEP, Glu/Gal in HepG2 cells, bioactivation; settings: cited from earlier work
PHH [12] = settings: In vitro Assay; ref Albrecht 2019; cited from earlier work
hu-MPCC = settings: In vitro Assay; ref Khetani 2012; cited from earlier work
[13] = ref Chen 2011; cited from earlier work
rBsep [14] = settings: In vitro Assay; ref Dawson 2012; cited from earlier work
RMPCC's = settings: In vitro Assay; ref Khetani 2012; cited from earlier work
hLiMTs [15] = assay: Combined HCI (HCS) and cellular ATP 3D assay in hLiMTs
HepaRG spheroids = assay: Combined HCI (HCS) and cellular ATP 3D assay in HepaRG spheroids
[16] = test system: isolated mouse liver mitochondria; settings: In vitro Assay; ref Porceddu 2012; cited from earlier work
[17] = In vitro Assay, ref Persson 2013
[18] = Modeled in vitro assays (cytotoxicity, mitochondrial dysfunction, BSEP), ref Aleo et al. 2019
[19] = In vitro Assay, ref Proctor 2017
[20] = Microtissue model structural based (HCI), combined HCS and ATP, MEC < 25 × Cmax.tot cut-off

SMILES: CCC(=O)O[C@]1(C(=O)CCl)[C@@H](C)C[C@H]2[C@@H]3CCC4=CC(=O)C=C[C@]4(C)[C@@]3(F)[C@@H](O)C[C@@]21C [clobetasol propionate]
- Inhibition of rBsep cutoff<1& cmax u>.2 (rBsep [1]): -VE
- Inhibition of rBsep cutoff<3 (rBsep [1]): +VE
- In vivo DILI ([2]; ref Dawson 2012): -VE
- In vivo DILI ([2]; ref Garside 2014): -VE
- In vivo DILI ([2]; ref Gustafsson 2014): -VE
- THLE-Null [3]: -VE
- THLE-Null/3A4 [3]: -VE
- Cluster 1-6 +VE Assay [4]: -VE

SMILES: CCC(=O)O[C@H]1[C@H](O[C@@H]2[C@@H](C)[C@H](O[C@H]3C[C@@](C)(OC)[C@@H](O)[C@H](C)O3)[C@@H](C)C(=O)O[C@H](CC)[C@@](C)(O)[C@H](O)[C@@H](C)C(=O)[C@H](C)C[C@@]2(C)O)O[C@H](C)C[C@@H]1N(C)C [erythromycin estolate]
- Inhibition of rBsep cutoff<1& cmax u>.2 (rBsep [1]): +VE
- Inhibition of rBsep cutoff<3 (rBsep [1]): +VE
- Structural based (HCI) (human hepatocytes): +VE
- Partition Hybrid HRM Score ([5]; In vitro Assay, ref Aleo 2019): +VE
- Ro2 Hybrid HRM Score ([5]; In vitro Assay, ref Aleo 2019): +VE
- In vivo DILI ([2]; ref Aleo 2019): +VE
- In vivo DILI ([2]; ref Dawson 2012): +VE
- In vivo DILI ([2]; ref Xu 2008): +VE

SMILES: COc1ccc(C(=O)NCc2cccnc2)cc1C(=O)NCc1cccnc1 [picotamide]
- Inhibition of rBsep cutoff<1& cmax u>.2 (rBsep [1]): -VE
- Inhibition of rBsep cutoff<3 (rBsep [1]): -VE
- Structural based (HCI) (HepG2 cells [6]): +VE (lowest HCI endpoint IC50 (or in the absence of dose–response < 100 µM) < 30 × total human plasma exposure levels (Cmax.tot))
- In vivo DILI ([2]; ref Dawson 2012): -VE
- In vivo DILI ([2]; ref Gustafsson 2014): -VE
- In vivo DILI ([2]; ref O'Brien 2006): -VE

SMILES: O=C1CC2(CCCC2)CC(=O)N1CCCCN1CCN(c2ncccn2)CC1 [buspirone, reference compound]
- Cytotoxicity HepG2 48 hrs (HepG2): -VE
- DILI severity category (Chen et al. [2016]) ([7]; LTKB DILIrank category, ref Chen et al. 2016): Ambiguous
- DILI severity category (Chen 2016) ([7]; human DILI classification, LTKB DILIrank, ref Chen et al. 2016): Ambiguous
- DILI severity category ([7]; human DILI severity, ref Chen et al.): Ambiguous
- DILI +VE (5-8), DILI -VE (-4) ([7]; ref Chen 2016): -VE
- DILI severity category ([7]; ref Chen 2016): Ambiguous DILI-concern
- Structural based (HCI) (HepG2 cells [6]): -VE
- DILI in vitro assay prediction, O'Brien (2006) (HepG2 cells [6]; Structural based (HCI), HepG2, ref O'Brien et al. 2006): -VE
- Cluser analysis (HepG2 cells [8]; [17]): -VE
- Structural based (HCI) (HepG2 cells [8]; [17]): -VE
- DILI in vitro assay prediction, Persson (2013) (HepG2 cells [8]; Structural based (HCI), HepG2, ref Persson et al. 2013): -VE
- Structural based (HCI) (human hepatocytes): -VE
- DILI in vitro assay prediction, Xu (2008) (human hepatocytes; Structural based (HCI), human hepatocytes, ref Xu et al. 2008): -VE
- Ro2 Hybrid HRM Score ([5]; In vitro Assay, ref Aleo 2019): -VE
- Rule of Two hybrid HRM Score ≥3, Aleo (2019) [5, 18]: -VE
- Rule of Two hybrid HRM Score ≥8, Aleo (2019) [5, 18]: -VE
- PHH/100uM, Proctor (2017) (PHH [9]; 2D PHH, ATP, IC50 threshold 100 µM, ref Proctor et al. 2017): -VE
- PHH ATP <100uM (PHH [9]; [19]): -VE
- hLiMTs ATP <100uM (hLiMTs [10]; [19]): -VE
- hLiMTs/100uM, Proctor (2017) (hLiMTs [10]; hLiMTs, ATP, IC50 threshold 100 µM, ref Proctor et al. 2017): -VE
- hLiMTs ATP <20 x Cmax (PHH spheroids; In vitro Assay, ref Vorrink 2018): -VE
- DILI in vitro assay prediction, Vorrink (2018) (PHH spheroids; PHH spheroids, ATP, 14 days, IC20 < 20 × Cmax.tot, ref Vorrink et al. 2018): -VE
- Bayesian Machine Learning DILI prediction, Williams (2019) ([11]; Bayesian modeling, ref Williams et al. 2019): -VE
- Bayesian Machine Learning ([11]; In vitro Assay, ref Williams 2019): -VE
- Assigned DILI category ([2]; Chen et al. 2016 or literature alignment, ref Chen et al. 2016): 1
- In vivo DILI ([2]; […]): -VE
- In vivo DILI ([2]; ref Albrecht 2019): -VE
- In vivo DILI ([2]; ref Dawson 2012): -VE
- In vivo DILI ([2]; ref Garside 2014): -VE
- In vivo DILI ([2]; ref Gustafsson 2014): -VE
- In vivo DILI ([2]; ref Khetani 2012): -VE
- In vivo DILI ([2]; ref O'Brien 2006): -VE
- In vivo DILI ([2]; ref Persson 2013): -VE
- In vivo DILI ([2]; ref Proctor 2017): -VE
- In vivo DILI ([2]; ref Schadt 2015): -VE
- In vivo DILI ([2]; ref Vorrink 2018): -VE
- In vivo DILI ([2]; ref Williams 2019): -VE
- In vivo DILI ([2]; ref Xu 2008): -VE
- Cytotoxicity PHH 48 hrs (PHH [12]): -VE
- HMPCC's (hu-MPCC): -VE
- Cluster 1-6 +VE Assay [4]: +VE
- DILI Score (FDA) (1-8) [13]: 3
- Inhibition of rBsep cutoff<1& cmax u>.2 (rBsep [14]): -VE
- Inhibition of rBsep cutoff<3 (rBsep [14]): -VE
- RMPCC's (RMPCC's): -VE
- AC50 (hLiMTs [15]; Homo sapiens, read-out: ATP endpoint AC50): 5.15 µM
- minimal effective concentration (hLiMTs [15]; Homo sapiens, read-out: ATP endpoint MEC): 3.12 µM
- DILI prediction hLiMTs (HCS-MEC) (hLiMTs [15]; [20]): -VE
- hLiMTs <25x Avg Cmax ATP (hLiMTs [15]; hLiMTs, ATP endpoint, cut-off <25x Avg Cmax): -ve
- hLiMTs <100x Avg Cmaxu ATP (hLiMTs [15]; hLiMTs, ATP endpoint, cut-off <100x Avg Cmaxu): -ve
- hLiMTs <25x Avg Cmax HCS (hLiMTs [15]; hLiMTs, HCS endpoints, cut-off <25x Avg Cmax): -ve
- hLiMTs <100x Avg Cmaxu HCS (hLiMTs [15]; hLiMTs, HCS endpoints, cut-off <100x Avg Cmaxu): -ve
- hLiMTs <25x Avg Cmax All (hLiMTs [15]; hLiMTs, all endpoints (ATP and HCS), cut-off <25x Avg Cmax): -ve
- hLiMTs Cmax max All (hLiMTs [15]; hLiMTs, all endpoints, Cmax max used): -ve
- hLiMTs Cmax min All (hLiMTs [15]; hLiMTs, all endpoints, Cmax min used): -ve
- hLiMTs <10 uM All (hLiMTs [15]; hLiMTs, all endpoints, cut-off <10 uM): +ve (<10 uM)
- hLiMTs <100x Avg Cmaxu All (hLiMTs [15]; hLiMTs, all endpoints, cut-off <100x Avg Cmaxu): -ve
- HepaRG <25x Avg Cmax ATP (HepaRG spheroids; HepaRG, ATP endpoint, cut-off <25x Avg Cmax): -ve
- HepaRG <100x Avg Cmaxu ATP (HepaRG spheroids; HepaRG, ATP endpoint, cut-off <100x Avg Cmaxu): -ve
- HepaRG <25x Avg Cmax HCS (HepaRG spheroids; HepaRG, HCS endpoints, cut-off <25x Avg Cmax): -ve
- HepaRG <100x Avg Cmaxu HCS (HepaRG spheroids; HepaRG, HCS endpoints, cut-off <100x Avg Cmaxu): -ve
- HepaRG <25x Avg Cmax All (HepaRG spheroids; HepaRG, all endpoints (ATP and HCS), cut-off <25x Avg Cmax): -ve
- HepaRG Cmax max All (HepaRG spheroids; HepaRG, all endpoints, Cmax max used): -ve
- HepaRG Cmax min All (HepaRG spheroids; HepaRG, all endpoints, Cmax min used): -ve
- HepaRG <10 uM All (HepaRG spheroids; HepaRG, all endpoints, cut-off <10 uM): -ve
- HepaRG <100x Avg Cmaxu All (HepaRG spheroids; HepaRG, all endpoints, cut-off <100x Avg Cmaxu): -ve
- DILI prediction HepaRG spheroids (HCS-MEC) (HepaRG spheroids; [20]): -VE

SMILES: CC(C)(S)[C@@H](N)C(=O)O [d-penicillamine]
- Inhibition of rBsep cutoff<1& cmax u>.2 (rBsep [1]): -VE
- Inhibition of rBsep cutoff<3 (rBsep [1]): -VE
- In vivo DILI ([2]; ref Dawson 2012): +VE
- In vivo DILI ([2]; ref Gustafsson 2014): +VE
- In vivo DILI ([2]; ref Porceddu 2012): +VE
- THLE-Null [3]: -VE
- THLE-Null/3A4 [3]: -VE
- in vitro data EC2<=1x Cmax [16]: +VE
- in vitro data EC20<=2uM [16]: -VE

SMILES: COc1ccc(Cl)cc1C(=O)NCCc1ccc(S(=O)(=O)NC(=O)NC2CCCCC2)cc1 [glibenclamide]
- Inhibition of rBsep cutoff<1& cmax u>.2 (rBsep [1]): +VE
- Inhibition of rBsep cutoff<3 (rBsep [1]): +VE
- Cluster 1-6 +VE Assay [4]: +VE

SMILES: Cc1onc(-c2ccccc2Cl)c1C(=O)N[C@@H]1C(=O)N2[C@@H]1SC(C)(C)[C@@H]2C(=O)O [cloxacillin]
- Inhibition of rBsep cutoff<1& cmax u>.2 (rBsep [1]): -VE
- Inhibition of rBsep cutoff<3 (rBsep [1]): -VE
